Data from patent US8833363B2, “Ejection liquid, ejection method, method for forming liquid droplets, liquid ejection cartridge and ejection apparatus” (Canon Kabushiki Kaisha, priority 2004, dated 2014).

Tested on: Wister rats
Test: Confirmation of pharmacological activity: blood glucose level of rats after subcutaneous injection
Type: in vivo, rat
Conditions: 1.6 U/kg, 15, 30, 60 and 120 minutes after injection
Method: After anesthetic, Nembutal, was injected to Wister rats (male, 8 week-old, weight: about 250 g) fasted for one day, blood was taken from the tail vein. This is used as a base (control). […] The resultant liquid droplets were collected and subcutaneously injected into the rats in a dose of 1.6 U/kg. Blood was taken from the tail vein 15, 30, 60 and 120 minutes after the injection. The blood samples thus taken were centrifugally separated and the blood glucose levels of the obtained serums were analyzed (one group consisting of 6 rats). The same experiment was performed by using an insulin solution having no additives and not ejected in accordance with the thermal inkjet system as a Comparative Example.

insulin: insulin solution having no additives and not ejected in accordance with the thermal inkjet system (Comparative Example of Example 25)
effect in reducing blood glucose level: swiftly decreased
